Assay results from patent US20240092799A1, “MNK INHIBITORS” (Hepagene Therapeutics (HK) Limited, priority 2020, published 2024).

Key:
[1] = biological target: MNK2 (Homo sapiens (Human), UniProt Q9HBH9); test: MNK Biochemical Enzymatic Assay (ADP-Glo), MNK2 binding assay
Summary of the method: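 Human MNK1 or MNK2 was preincubated with a 10-point, 1:3 serial dilution of compound for 15 min at 25 °C. Substrate was then added and the reaction ran 60 min at 25 °C. ADP formed was read by ADP-Glo luminescence, and IC50 came from non-linear regression.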

[2] = tested on: TMD-8 cell p-IF4E; test: p-eIF4E Signaling Cellular Assay (CisBio HTRF) in TMD-8 cells; format: cell-based; settings: 40 min treatment
Protocol: p-eIF4E Signaling Cellular Assay. Phosphorylated eIF4E is assayed using the CisBio p-Eif4E HTRF assay kit. Reagents and equipment used in the assay are listed below, followed by the protocol.
Cell medium: RPMI 1640+10% FBS+1*PS, TMD-8 were cultured as recommended and assayed in exponential growth phase. • a) Plate 30 μL of cells in 384 white assay plate in appropriate medium and proper cell density (20 k/well) based on Optimization at 37° C. under 5% CO2 atmosphere • b) Dispense 90 nL of compounds diluted in DMSO and treat for 40 min at 37° C. under 5% CO2 atmosphere • c) Remove cell supernatant by flicking the plate • d) Add 16 μL of supplemented lysis buffer (1×) for 30 minutes at RT under shaking • e) Add 4 μL of premixed antibody solutions prepared in the detection buffer. Cover the plate with a plate sealer. Incubate 0/N at RT • f) Read the fluorescence emission at 665 nm and 620 nm on Envision • g) Data analysis • (1) Ratio […] signal is calculated for each well • (2) % Inhibition is calculated as follow:
% inhibition=100−(Signalcmpd-SignalAve_PC)/(SignalAve_VC-SignalAve_PC)×100. • (3) Calculate IC50 and Plot effect-dose curve of cmpds:
Calculate IC50 by fitting % Inhibition values and log of compound concentrations to nonlinear regression (dose response−variable slope) with Graphpad 8.0.
Y=Bottom+(Top−Bottom)/(1+10^((Log IC50−X)*Hill Slope)) • X: log of Inhibitor concentration; Y: % Inhibition.

MNK2, sequence (Q9HBH9 whole entry): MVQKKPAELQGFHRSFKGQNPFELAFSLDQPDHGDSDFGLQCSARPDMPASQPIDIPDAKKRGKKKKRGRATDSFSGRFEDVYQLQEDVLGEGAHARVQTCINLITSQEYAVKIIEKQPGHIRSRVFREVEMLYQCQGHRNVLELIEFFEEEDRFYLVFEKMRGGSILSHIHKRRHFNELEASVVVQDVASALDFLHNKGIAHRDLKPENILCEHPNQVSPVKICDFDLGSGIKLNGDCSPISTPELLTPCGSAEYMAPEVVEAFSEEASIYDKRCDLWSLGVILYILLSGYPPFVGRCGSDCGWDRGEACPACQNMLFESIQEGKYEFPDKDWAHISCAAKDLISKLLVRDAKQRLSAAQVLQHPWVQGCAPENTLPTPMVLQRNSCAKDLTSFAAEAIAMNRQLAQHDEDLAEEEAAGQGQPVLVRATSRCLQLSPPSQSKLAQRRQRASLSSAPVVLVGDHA

| SMILES | IC50 [1] [nM] | IC50 ([2]; Homo sapiens, TMD8, 40 min) [nM] | IC50 [2] [nM] |
| --- | --- | --- | --- |
| Cc1cc(Nc2cc(Nc3ccc(N4CCNCC4)cn3)ncn2)[n+]([O-])c2c1C(=O)NC21CCCCC1 [Compound XXIX-AAL, 4′-methyl-5′-oxo-2′-[(6-{[5-(piperazin-1-yl)pyridin-2-yl]amino}pyrimidin-4-yl)amino]-6′H-spiro[cyclohexane-1,7′-pyrrolo[3,4-b]pyridin]-1′-ium-1′-olate] | 0.1 to 10 | 0.1 to 10 |  |
| CN(C)[C@H]1CCN(C(=O)C2CCc3c(sc4ncnc(Nc5cc6c(s5)C(=O)NC65CCCCC5)c34)C2)C1 (stereo partly drawn) [Compound XXV, 2′-((7-((S)-3-(Dimethylamino)pyrrolidine-1-carbonyl)-5,6,7,8-tetrahydrobenzo[4,5]thieno[2,3-d]pyrimidin-4-yl)amino)spiro[cyclohexane-1,4′-thieno[2,3-c]pyrrol]-6′(5′H)-one] | 10 to 100 | 100 to 1000 |  |
| O=C1NC2(CCCCC2)c2cc(Nc3cc(NC4CCOC4)ncn3)sc21 (stereo not shown) [Compound XXIII-Y, 2′-((6-((tetrahydrofuran-3-yl)amino)pyrimidin-4-yl)amino)spiro[cyclohexane-1,4′-thieno[2,3-c]pyrrol]-6′(5′H)-one] | 0.1 to 10 | 10 to 100 |  |
| O=C1NC2(CCCCC2)c2cc(Nc3cc(NCC4CCCC4)ncn3)sc21 [Compound XXIV-H, 2′-((6-((cyclopentylmethyl)amino)pyrimidin-4-yl)amino)spiro[cyclohexane-1,4′-thieno[2,3-c]pyrrol]-6′(5′H)-one] | 10 to 100 | 10 to 100 |  |
| O=C1NC2(CCCCC2)c2cc(Nc3cc(Nc4cc[nH]n4)ncn3)sc21 [Compound XXIII-U, 2′-((6-((1H-pyrazol-3-yl)amino)pyrimidin-4-yl)amino)spiro[cyclohexane-1,4′-thieno[2,3-c]pyrrol]-6′(5′H)-one] | 0.1 to 10 | 10 to 100 |  |
| Cc1cc(Nc2cc(Nc3ncn(C)n3)ncn2)[n+]([O-])c2c1C(=O)NC21CCCCC1 [Compound XXIX-AD, 4′-methyl-2′-((6-((1-methyl-Ill-1,2,4-triazol-3-yl)amino)pyrimidin-4-yl)amino)-5′-oxo-5′,6′-dihydrospiro[cyclohexane-1,7′-pyrrolo[3,4-b]pyridine] 1′-oxide] | 0.1 to 10 | 10 to 100 |  |
| Cc1cc(Nc2cc(Nc3ccc(N4CCCCC4)cn3)ncn2)[n+]([O-])c2c1C(=O)NC21CCCCC1 [Compound XXIX-AAM, 4′-methyl-5′-oxo-2′-((6-((5-(piperidin-1-yl)pyridin-2-yl)amino)pyrimidin-4-yl)amino)-5′,6′-dihydrospiro[cyclohexane-1,7′-pyrrolo[3,4-b]pyridine] 1′-oxide] | 0.1 to 10 | 0.1 to 10 |  |
| CN1CCN(c2ccc(Nc3cc(Nc4nc5c(s4)C(=O)NC54CCCCC4)ncn3)nc2)CC1 [Compound XXVIII-R, 2′-((6-((5-(4-methylpiperazin-1-yl)pyridin-2-yl)amino)pyrimidin-4-yl)amino)spiro [cyclohexane-1,4′-pyrrolo[3,4-d]thiazol]-6′(5′H)-one] | 0.1 to 10 | 0.1 to 10 |  |
| CO[C@H]1C[C@@H](Nc2cc(Nc3cc(C)c4c([n+]3[O-])C3(CCCCC3)NC4=O)ncn2)C1 [Compound XXIX-AAE, 2′-((6-((cis-3-methoxycyclobutyl)amino)pyrimidin-4-yl)amino)-4′-methyl-5′-oxo-5′,6′-dihydrospiro[cyclohexane-1,7′-pyrrolo[3,4-b]pyridine] 1′-oxide] | 0.1 to 10 | 0.1 to 10 |  |
| Cn1cnc(Nc2cc(Nc3nc4c(s3)C(=O)NC43CCCCC3)ncn2)n1 [Compound XXVIII-K, 2′-((6-((1-methyl-1H-1,2,4-triazol-3-yl)amino)pyrimidin-4-yl)amino)spiro[cyclohexane-1,4′-pyrrolo[3,4-d]thiazol]-6′(5′H)-one] | 0.1 to 10 | 10 to 100 |  |
| Cc1cc(Nc2cc(N[C@H]3C[C@@](C)(O)C3)ncn2)[n+]([O-])c2c1C(=O)NC21CCCCC1 [Compound XXIX-AAC, 4′-methyl-5′-oxo-2′-[(6-{[trans-3-hydroxy-3-methylcyclobutyl]amino}pyrimidin-4-yl)amino]-6′H-spiro[cyclohexane-1,7′-pyrrolo[3,4-b]pyridin]-1′-ium-1′-olate] | 0.1 to 10 |  | 10 to 100 |
| Cn1cc(Nc2cc(Nc3cc4c(s3)C(=O)NC43CCCCC3)ncn2)cn1 [Compound XXIV-K, 2′-((6-((1-methyl-1H-pyrazol-4-yl)amino)pyrimidin-4-yl)amino)spiro[cyclohexane-1,4′-thieno[2,3-c]pyrrol]-6′(5′H)-one] | 0.1 to 10 | 100 to 1000 |  |
| O=C1NC2(CCCCC2)c2nc(Nc3cc(Nc4ccccn4)ncn3)sc21 [Compound XXVIII-B, 2′-((6-(pyridin-2-ylamino)pyrimidin-4-yl)amino)spiro[cyclohexane-1,4′-pyrrolo[3,4-d]thiazol]-6′(5′H)-one] | 0.1 to 10 | 10 to 100 |  |

More lines, now with the values ahead:

| IC50 [1] [nM] | IC50 ([2]; Homo sapiens, TMD8, 40 min) [nM] | IC50 [2] [nM] | SMILES |
| --- | --- | --- | --- |
| 0.1 to 10 | 100 to 1000 |  | O=C1NC2(CCCCC2)c2cc(Nc3cc(NC(=O)C4CCOC4)ncn3)sc21 (stereo not shown) [Compound XXIV-I, N-(6-((6′-oxo-5′,6′-dihydrospiro[cyclohexane-1,4′-thieno[2,3-c]pyrrol]-2′-yl)amino)pyrimidin-4-yl)tetrahydrofuran-3-carboxamide] |
| 0.1 to 10 | 0.1 to 10 |  | CCN1CCN(c2ccc(Nc3cc(Nc4cc(C)c5c([n+]4[O-])C4(CCCCC4)NC5=O)ncn3)nc2)CC1 [Compound XXIX-AAO, 2′-[(6-{[5-(4-ethylpiperazin-1-yl)pyridin-2-yl]amino}pyrimidin-4-yl)amino]-4′-methyl-5′-oxo-6′H-spiro[cyclohexane-1,7′-pyrrolo[3,4-b]pyridin]-1′-ium-1′-olate] |
| 0.1 to 10 | 10 to 100 |  | Cn1ccc(Nc2cc(Nc3cc4c(s3)C(=O)NC43CCCCC3)ncn2)n1 [Compound XXIII-P, 2′-((6-((1-methyl-1H-pyrazol-3-yl)amino)pyrimidin-4-yl)amino)spiro[cyclohexane-1,4′-thieno[2,3-c]pyrrol]-6′(5′H)-one] |
| 0.1 to 10 | 10 to 100 |  | Cc1cccc(Nc2cc(Nc3cc(C)c4c([n+]3[O-])C3(CCCCC3)NC4=O)ncn2)n1 [Compound XXIX-AL, 4′-methyl-2′-((6-((6-methylpyridin-2-yl)amino)pyrimidin-4-yl)amino)-5′-oxo-5′,6′-dihydrospiro[cyclohexane-1,7′-pyrrolo[3,4-b]pyridine] 1′-oxide] |
| 0.1 to 10 | 100 to 1000 |  | O=C1NC2(CCCCC2)c2cc(Nc3ncnc4[nH]ncc34)sc21 [Compound XVII-B, 2′-((1H-pyrazolo[3,4-d]pyrimidin-4-yl)amino)spiro[cyclohexane-1,4′-thieno[2,3-c]pyrrol]-6′(5′H)-one] |
| 0.1 to 10 | 10 to 100 |  | O=C1NC2(CCCCC2)c2nc(Nc3ccnc(N[C@H]4CCOC4)c3)sc21 [Compound XXVIII-H, (S)-2′-((2-((tetrahydrofuran-3-yl)amino)pyridin-4-yl)amino)spiro[cyclohexane-1,4′-pyrrolo[3,4-d]thiazol]-6′(5′H)-one] |
| 0.1 to 10 | 0.1 to 10 |  | Cc1cc(Nc2cc(Nc3ccccn3)ncn2)[n+]([O-])c2c1C(=O)NC21CCCCC1 [Compound XXIX-D, 4′-methyl-5′-oxo-2′-((6-(pyridin-2-ylamino)pyrimidin-4-yl)amino)-5′,6′-dihydrospiro[cyclohexane-1,7′-pyrrolo[3,4-b]pyridine] 1′-oxide] |
